# Source: patent US20130210156A1, “Uniform, Functionalized, Cross-Linked Nanostructures for Monitoring pH” (priority 2010, published 2013)
# Key:
# [1] = excited between 488 nm and 530 nm; cited from earlier work
# [2] = Fluorescence emission of photonic SCKs and cross-linkers as a function of solution pH; assay type: physicochemical
# Protocol: The resulting micelle solution 2 was incubated with 6.25 mol % or 12.5 mol % of the diamino-terminated pyrazine, relative to the acrylic acid residues, with the addition of EDCI, to afford SCK 3 or 4 having different amounts of fluorophores incorporated into the shells and, therefore, different degrees of cross-linking. The reaction mixture solutions were dialyzed against nanopure water for […] to remove the urea by-products and any non-attached pyrazine fluorophores. The SCK dimensions were then measured by atomic force microscopy (AFM) and transmission electron microscopy (TEM). […] Dialysis of the SCK solutions against nanopure water (ca. pH 7) for 3 days and then partitioning into six vials, each containing 5 mL of 5 mM PBS at pH 4.5, 6.1, 8.0, 9.5, or 11.0, placed the SCKs into different pH environments for analysis of the effects on the SCK hydrodynamic diameters and on the fluorophore photophysical properties.
# Covalent cross-linking between the pyrazine units and the PAA shells, thereby, affords photonic SCKs for potential pH sensing. Covalent cross-linking between pyrazine and PAA shells constitutes photonic SCKs for potential biomedical applications. We expected to observe the photophysical consequences of the deprotonated PAA shell from pH 4.5 to 9.5 and those of the PpHS core from pH 9.5 to 11. In order to test our hypothesis, UV-vis and fluorescence measurements were collected on the resulting SCK solutions over the pH range of 4.5 to 11.0 to determine the pyrazine concentration, and then normalize the concentration relative to the fluorescence intensity values (See, FIG. 8). […] To observe the photophysical properties of the photonic SCKs, the data for the pyrazines within the SCK shell layers were compared between the two SCKs having different degrees of pyrazine loading and also against the pyrazine cross-linker associated physically with PAA and as a small molecule in buffered solutions.
# To a 50 mL RB flask equipped with a magnetic stir bar was added a solution of micelles in nanopure H2O (15.0 mL, 0.016 mmol of carboxylic acid residues). To this solution, was added a solution of 3,6-diamino-N^2,N^5-bis(2-aminoethyl)pyrazine-2,5-dicarboxamide (0.397 mg, 1.12 μmol (6.25 mol % relative to the acrylic acid residues) for 12.5% cross-linking extent; or 0.794 mg, 2.24 μmol (12.5 mol % relative to the acrylic acid residues) for 25% cross-linking extent) in 1 mL nanopure H2O. The reaction mixture was allowed to stir for 2 h at room temperature. To this solution was added, dropwise via a syringe pump over 1 h, a solution of 1-[3′-(dimethylamino)propyl]-3-ethylcarbodiimide methiodide (EDCI, 0.849 mg, 2.86 μmol for 12.5% cross-linking extent; or 1.70 mg, 5.72 μmol for 25% cross-linking extent) in nanopure H2O (1.0 mL) and the reaction mixture was further stirred for 16 h at room temperature. Finally, the reaction mixture was transferred to pre-soaked dialysis tubing (MWCO ca. 3,500 Da) and dialyzed against nanopure water for 3 d to remove the small molecule starting materials and by-products, and afford aqueous solutions of SCK 3 and 4. SCK solutions for DLS, UV-vis, and fluorescence studies were further partitioned into six vials each containing 5 mM PBS (with 5 mM NaCl) at pH values of 4.5, 6.1, 8.0, 9.5, and 11.
# Preparation of shell cross-linked nanoparticles (SCK) from micelles: Micelle solution pH was adjusted between 5 and 6. An electronic pipette was used to add 6.25 mol % or 12.5 mol % of diamine-terminated cross-linker (from stock solution with concentration 2.392 mg/mL or 6.2957 mg/mL) to the micelle solution and let stir for 3 hrs. To this reaction mixture was added dropwise, via a metering pump, a solution of 1-[3-(dimethylamino)propyl]-3-ethylcarbodiimide methiodide dissolved in nanopure water (12.5 mol % or 25.0 mol %). […]
# [3] = pH-responsive UV-Vis and fluorescence emission of MCNs, SCKs and small molecule cross-linkers; assay type: physicochemical; settings: small molecules in buffer at the surveyed pH values (5.8 to 8.6)
# Protocol: The UV-vis absorption spectra of MCNs were collected at room temperature using a Varian Cary 100 Bio UV-visible spectrophotometer and plastic cuvettes with 10 mm of light path. For each MCN absorption spectroscopy measurement, the corresponding buffer solution (5 mM with 5 mM of NaCl) outside the dialysis tubing was used as control.
# The fluorescence spectra of MCNs were obtained at room temperature using a Varian Cary Eclipse fluorescence spectrophotometer. All fluorescence spectra from MCN solutions were measured at optical densities at the excitation wavelength. If not specially mentioned otherwise, an excitation wavelength of the observed maximum absorption peak was used. Each fluorescence spectrum was normalized with respect to the absorbed light intensity at the excitation wavelength.
# To a solution of PEO45-b-PNAS105-b-PS45 MCMs (30.0 mg of block copolymer precursor, 127 μmol of NAS residues) in 60.0 mL of DMF/H2O (v:v=1:1) at room temperature, was added dropwise over 10 min, a solution of cross-linker 2 or 3 of FIG. 24 (12.7 μmol for nominal 20% of cross-linking and 31.8 μmol for nominal 50% of cross-linking, respectively) in nano-pure H2O. The reaction mixture was allowed to stir for 48 h at room temperature in the absence of light. […]
molecule,measurement,setting,value
carboxyseminaphthofluorescein [cSNARF®-1],I580/I640 ratio,[1],greater than thirty
"Cl.Cl.NCCCOCCOCCOCCCNC(=O)c1nc(N)c(C(=O)NCCCOCCOCCOCCCN)nc1N [Photonic Cross-Linker Example 3, 3,6-diamino-N^2,N^5-bis(3-(2-(2-(3-aminopropoxy)ethoxy)ethoxy)propyl)pyrazine-2,5-dicarboxamide dihydrochloride]",decrease in fluorescence,[2]; as a function of increasing pH,ca. 30%
"Cl.Cl.NCCNC(=O)c1nc(N)c(C(=O)NCCN)nc1N [Photonic Cross-Linker Example 2, 3,6-diamino-N^2,N^5-bis(2-aminoethyl)pyrazine-2,5-dicarboxamide dihydrochloride]",change in fluorescence,[2]; as a function of increasing pH,less than 10%
same,Normalized percent increase in fluorescence,[2]; solution pH 4.5,100%
same,Normalized percent increase in fluorescence,[2]; solution pH 6.1,100%
same,Normalized percent increase in fluorescence,[2]; solution pH 8.0,100%
same,Normalized percent increase in fluorescence,[2]; solution pH 9.5,110%
same,Normalized percent increase in fluorescence,[2]; solution pH 11.0,100%
Cl.Cl.NCCNC(=O)c1nc(N)c(C(=O)NCCN)nc1N [cross-linker 2],UV-Vis absorbance and fluorescence emission spectra variation,[3],no apparent UV-Vis absorbance and fluorescence emission spectra variation
Cl.Cl.NCCCOCCOCCOCCCNC(=O)c1nc(N)c(C(=O)NCCCOCCOCCOCCCN)nc1N [cross-linker 3],UV-Vis absorbance and fluorescence emission spectra variation,[3],no apparent UV-Vis absorbance and fluorescence emission spectra variation
